Test results: US4244947A, “Carba decapeptide derivatives of [TYR^6 ]-somatostatin” (Ayerst McKenna and Harrison Inc., priority 1979, dated 1981)

Tests used:
Assay type in all cases: in vivo, rat
[1] = system: arginine stimulated insulin secretion; assay: arginine stimulated insulin secretion in anaesthetized fasted rats (plasma IRI); details: for ΔIRI, mean incremental change of IRI from basal: infused with arginine, 30 min, mean ± SEM
Description: (§1) The in vivo activity of the peptide of formula I is established by subjecting the peptide of formula I, in which X is (CH2)2 as a representative peptide of this invention, to the following standard test procedures.
(§2) Male Sprague Dawley rats (200±10 gm) body weight are used throughout these studies. They are maintained on an ad libitum diet of Purina Lab Chow and tap water until 24 hr before the studies are carried out. In the 24 hr period prior to use, the animals are fasted, but have unlimited access to tap water. All studies are conducted on sodium pentobarbital, sold under the trademark Nembutal, (Abbott Labs, Montreal), 60 mg/kg, ip, anaesthetized rats.
(§3) In studies where both insulin and glucagon secretion are investigated, arginine (arginine-HCl in 0.9% aqueous sodium chloride, pH 7.4, 200 mg/100 gm rat, Nutritional Biochemicals, Cleveland) is infused into an exposed jugular vein (2.0 ml/30 min).
(§4) The peptide of formula I or somatostatin at various concentrations is infused simultaneously with the arginine or glucose stimulus, with the aid of a butterfly infusion set (23 guage) into the test animals. The effect of the vehicle on the release of the hormones is determined by infusing the saline diluent into selected rats.
(§5) The blood samples are discharged into chilled (4° C.) glass test tubes, containing aprotinin, sold under the trademark Trasylol, (Boehringer Ingelheim, Montreal), 500 KIU/ml whole blood, and plasma samples were collected after centrifugation (4° C., 3000 rpm for 30 min). The plasma samples were stored at -20° until assayed for immuno reactive glucagon (IRG) using antiserum 30 K and for immuno reactive insulin (IRI) by the methods described by W. Lippmann and M. Kobric, Horm. Metab. Res., 10, 280 (1978).
(§6) All results are expressed as the mean ±SEM of the response. Insulin and glucagon responses obtained in the arginine treated groups are derived by subtracting the basal hormone level from the level at 30 min, and are expressed in Tables I, II and III as ΔIRG (pg/ml) and ΔIRI/(μU/ml), for glucagon and insulin, respectively. Insulin results obtained from the glucose treated animals are in absolute hormone level at the termination of the infusion.
(§7) Wilcoxon's two sample test for unpaired observations, as described in "Statistical Methods", G. W. Snedecor and W. G. Cochran, ed., sixth edition, the Iowa State University Press, Ames, Iowa, 1973, pp 130 and 131, is used to determine the significance of the peptide+arginine or peptide+glucose versus the responses due to arginine or glucose alone. In selected instances, parallel dose-response line assay by analysis of variance, as described in "Statistical Method in Biological Assay", D. J. Finney, ed., second edition, Hafner Publishing Company, New York, 1964, is used to determine the relative potency of the 2 peptides in the bioassays. A p≤0.05 is deemed to be significant.

[2] = system: arginine stimulated glucagon secretion; assay: arginine stimulated glucagon secretion in anaesthetized fasted rats (plasma IRG); details: for ΔIRG, mean incremental change of plasma IRG from level at 0 min to level at 30 min: mean ± SEM
Description: as §1, §2, §3, §4, §5, §6, §7

[3] = system: glucose stimulated insulin secretion; assay: glucose stimulated insulin secretion in anaesthetized fasted rats (plasma IRI); details: for IRI/ml, level observed at 30 min: absolute level, mean ± SEM
Description: as §1, §2
In studies where only insulin secretion is stimulated, glucose in 0.9% aqueous sodium chloride (British Drug House, Poole, England) is infused into an exposed jugular vein (100 mg/100 gm, in a volume of 2.0 ml for 30 min).
as §4, §5, §6, §7

C[C@H](N)C(=O)NCC(=O)N[C@H]1CSSC[C@@H](C(=O)O)NC(=O)[C@H](CO)NC(=O)[C@H]([C@@H](C)O)NC(=O)[C@H](Cc2ccccc2)NC(=O)[C@H]([C@@H](C)O)NC(=O)[C@H](CCCCN)NC(=O)[C@H](Cc2c[nH]c3ccccc23)NC(=O)[C@H](Cc2ccccc2)NC(=O)[C@H](Cc2ccccc2)NC(=O)[C@H](CC(N)=O)NC(=O)[C@H](CCCCN)NC1=O [somatostatin]
ΔIRI, mean incremental change of IRI from basal ([1]; Study A, 0.3 μg peptide/100 gm body weight rat): 73.8 ± 18.5 μU/ml
ΔIRI, mean incremental change of IRI from basal ([1]; Study A, 1.0 μg peptide/100 gm body weight rat): 43.0 ± 22.6 μU/ml
ΔIRI, mean incremental change of IRI from basal ([1]; Study A, 3.0 μg peptide/100 gm body weight rat): 40.0 ± 6.6 μU/ml
ΔIRI, mean incremental change of IRI from basal ([1]; Study A, 30.0 μg peptide/100 gm body weight rat): 23.2 ± 12.5 μU/ml
ΔIRI, mean incremental change of IRI from basal ([1]; Study B, 0.03 μg peptide/100 gm body weight rat): 88.3 ± 9.1 μU/ml
ΔIRI, mean incremental change of IRI from basal ([1]; Study B, 0.3 μg peptide/100 gm body weight rat): 76.8 ± 5.2 μU/ml
ΔIRI, mean incremental change of IRI from basal ([1]; Study B, 3.0 μg peptide/100 gm body weight rat): 32.2 ± 3.5 μU/ml
ΔIRI, mean incremental change of IRI from basal ([1]; Study B, 30.0 μg peptide/100 gm body weight rat): 35.5 ± 7.8 μU/ml
ΔIRI, mean incremental change of IRI from basal ([1]; Study C, 10.0 μg peptide/100 gm body weight rat): 52.8 ± 9.3 μU/ml
ΔIRI, mean incremental change of IRI from basal ([1]; Study C, 100.0 μg peptide/100 gm body weight rat): 25.5 ± 8.1 μU/ml
suppression of IRI, comparison of effective dose ([1]; arginine stimulated, summary of Table I): suppresses IRI at a lower dose than does the peptide of formula I in which X is (CH2)2
ΔIRG, mean incremental change of plasma IRG from level at 0 min to level at 30 min ([2]; Study A, 0.3 μg peptide/100 gm rat infused for 30 min with arginine): 157.2 ± 35.9 pg/mL
ΔIRG, mean incremental change of plasma IRG from level at 0 min to level at 30 min ([2]; Study A, 1.0 μg peptide/100 gm rat infused for 30 min with arginine): 72.7 ± 19.0 pg/mL
ΔIRG, mean incremental change of plasma IRG from level at 0 min to level at 30 min ([2]; Study A, 3.0 μg peptide/100 gm rat infused for 30 min with arginine): 102.5 ± 25.8 pg/mL
ΔIRG, mean incremental change of plasma IRG from level at 0 min to level at 30 min ([2]; Study A, 30.0 μg peptide/100 gm rat infused for 30 min with arginine): 90.2 ± 38.4 pg/mL
ΔIRG, mean incremental change of plasma IRG from level at 0 min to level at 30 min ([2]; Study B, 0.03 μg peptide/100 gm rat infused for 30 min with arginine): 211.0 ± 23.1 pg/mL
ΔIRG, mean incremental change of plasma IRG from level at 0 min to level at 30 min ([2]; Study B, 0.3 μg peptide/100 gm rat infused for 30 min with arginine): 149.2 ± 29.9 pg/mL
ΔIRG, mean incremental change of plasma IRG from level at 0 min to level at 30 min ([2]; Study B, 3.0 μg peptide/100 gm rat infused for 30 min with arginine): 69.3 ± 22.2 pg/mL
ΔIRG, mean incremental change of plasma IRG from level at 0 min to level at 30 min ([2]; Study B, 30.0 μg peptide/100 gm rat infused for 30 min with arginine): 69.7 ± 8.4 pg/mL
suppression of IRG secretion, comparison ([2]; arginine stimulated, summary of Table II): suppresses the IRG secretion about equally
IRI/ml, level observed at 30 min ([3]; Study A, 10 μg peptide/100 gm rat infused for 30 min with glucose): 27.2 ± 4.7 μU/ml
IRI/ml, level observed at 30 min ([3]; Study A, 100 μg peptide/100 gm rat infused for 30 min with glucose): 12.3 ± 3.9 μU/ml
IRI/ml, level observed at 30 min ([3]; Study B, 10 μg peptide/100 gm rat infused for 30 min with glucose): 40.3 ± 7.7 μU/ml
IRI/ml, level observed at 30 min ([3]; Study B, 30 μg peptide/100 gm rat infused for 30 min with glucose): 17.0 ± 7.5 μU/ml
IRI/ml, level observed at 30 min ([3]; Study B, 100 μg peptide/100 gm rat infused for 30 min with glucose): 6.2 ± 1.9 μU/ml
relative potency in suppressing IRI secretion ([3]; glucose stimulated, summary of Table III): significantly more potent than the peptide of formula I in which X is (CH2)2
